In patent US10280170B2, “Substituted 4,5,6,7-tetrahydro-pyrazolo[1,5-a]pyrazine derivatives and 5,6,7,8-tetrahydro-4H-pyrazolo[1,5-a][1,4]diazepine derivatives as Ros1 inhibitors” (Janssen Pharmaceutica NV, priority 2014, dated 2019):
Where two headings read alike, the source gives them in different places.

Columns and labels:
[1] = system: HCC78 non-small cell lung cancer cells; assay: HCC78 cell proliferation assay; format: cell-based; settings: for EC50: Homo sapiens, HCC78, 96 h, read-out: HCC-78 PROL pEC50 (converted)
Procedure, shortened: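 HCC78 NSCLC cells (~1000/well) in RPMI-1640 with 10% FBS were treated 24 h after seeding and exposed to compound for 4 days at 37 °C. Viability was read by MTT, with absorbance at 538 nm after DMSO/glycine solubilization.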

[2] = system: Ros pY2274 in HCC78 cells; assay: pROS1 immunofluorescence assay in HCC78 cells; format: cell-based; settings: Homo sapiens, read-out: HCC78-pRos1 pIC50 (converted)
Description: pROS1 Immunofluorescence Assay in HCC78 Cells
Approximately 20000 HCC78 non-small cell lung cancer cells in 180 μl of cell culture medium (RPMI-1640, 10% FBS, 2 mM L-Glutamine, 10 mM Hepes, 1 mM sodium pyruvate, 4.5 g/L glucose, 1.5 g/L sodium bicarbonate, 25 μg/ml Gentamycin) were seeded in each well of a 96-well polystyrene, poly-D-lysine coated plate and incubated at 37° C. and 5% CO2. After 24 hours, compounds were diluted in cell culture medium from which 20 μl was added to the wells containing cells and incubated for 4 hours at 37° C. and 5% CO2. The medium was removed and the cells were fixed by adding 100 μl of 5% formaldehyde in TBS (tris-buffered saline) (50 mM Tris.HCl, pH 7.4, 150 mM NaCl) and incubating for 15 minutes at room temperature. The formaldehyde was removed and replaced with methanol for 10 minutes at room temperature, after which the cells were washed 3 times with TBS containing 1% Triton X-100 and incubated in Odyssee (Li-Cor) blocking buffer for 1 hour at room temperature. The cells were then incubated with the primary rabbit antibody directed against Ros pY2274 (cst-3078) diluted 1/200 in blocking buffer for 24 hours at room temperature. The cells were washed three times with TBS containing 0.1% Triton X-100 and incubated with a secondary anti-rabbit antibody conjugated to the fluorescent dye Alexafluor 680 in blocking buffer for 1 hour at room temperature. The cells were washed three times with TBS containing 0.1% Triton X-100 and left to dry before measuring RFUs (Relative Fluorescence Units) at 700 nm using a fluorescence imager.
The same experiment was performed using total Ros1 antibody (sc-6347) diluted 1/1000 instead of Ros1 pY2274 antibody and an anti-goat antibody conjugated to IRDye800cw as a secondary antibody. RFUs were measured at […]. The signals from total Ros1 detection were used to normalize the Ros1 pY2274 values.

[3] = biological target: T1, Ros1 enzyme (Homo sapiens, UniProt P08922); assay: Ros1 enzymatic assay; format: biochemical; settings: Ros1 enzymatic assay; for IC50: read-out: ROS1 pIC50 (converted)
T1 construct: 0.5 μg/ml Ros1 enzyme
Procedure, shortened: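 Radiometric proximity read-out: 33P incorporated into IRS-Tide captured on streptavidin imaging beads and imaged on LEADseeker. Phosphorylation ran 120 min at RT with 20 μM ATP (substrate-mix level) in Tris pH7.5/MgCl2/EGTA/Tween buffer; EDTA stop.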

[4] = biological target: Ba/F3 cells containing Ros1 with a mutation at the gatekeeper residue (L2026M) (Homo sapiens, UniProt P08922, L2026M, cells depend on it, form not given); assay: Ba/F3-Ros1 cell proliferation assay, L2026M gatekeeper mutant; format: cell-based, murine; settings: without IL-3
Procedure, shortened: (§1)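 Alamar Blue read-out (resazurin, ex. 540 nm, em. 590 nm, 4 h at 37 °C) after 24 h compound exposure of 20000 Ba/F3-Ros1 cells per well. Cells carry WT, gatekeeper L2026M or crizotinib-resistant G2032R Ros1; medium RPMI-1640, 10% FBS, 2 mM L-Glutamine.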

[5] = system: Ba/F3 cells containing Ros1 wild-type protein + IL-3; assay: Ba/F3-Ros1 cell proliferation counter-screen, wild-type protein in the presence of 10 ng/ml murine IL-3; format: cell-based; settings: Mus musculus, BaF3, 24 h, read-out: BaF3-ROS1 + IL3 pIC50 (converted)
Procedure, shortened: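 IL-3 rescue counter-screen: WT Ros1 Ba/F3, 10 ng/ml mIL-3, 24 h compound exposure, 37 °C/5% CO2; Alamar Blue added 4 h, RFU ex540/em590.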

[6] = biological target: T2, Ba/F3 cells containing Ros1 wild-type protein (Homo sapiens, UniProt P08922, cells depend on it, form not given); assay: Ba/F3-Ros1 cell proliferation assay, wild-type Ros1; format: cell-based, murine; settings: without IL-3
T2 construct: The background only speaks of 'a number of different unrelated proteins' and names SLC34A2-ROS1 for HCC78 cells
Procedure, shortened: as §1

[7] = biological target: Ba/F3 cells containing Ros1 with G2032R mutation (Homo sapiens, UniProt P08922, G2032R, cells depend on it, form not given); assay: Ba/F3-Ros1 cell proliferation assay, G2032R crizotinib-resistance mutant; format: cell-based, murine; settings: without IL-3
Description: Ba/F3-Ros1 Cell Proliferation Assay
This assay was carried out with Ba/F3 cells containing three different versions of Ros1: the wild-type protein, protein with a mutation at the gatekeeper residue (L2026M), and protein with a mutation identified in a tumor from a patient that became resistant to crizotinib (Xalkori®) treatment (G2032R). Compounds were solubilized in 100% DMSO (dimethyl sulfoxide) and sprayed into polystyrene, tissue culture treated 384-well plates. A 50 μl volume of cell culture medium (phenol red free RPMI-1640, 10% FBS (fetal bovine serum), 2 mM L-Glutamine) containing 20000 Ba/F3-Ros1 cells was added to each well and the plates were placed in an incubator at 37° C. and 5% CO2. After 24 hours, 10 μl of Alamar Blue solution (0.5 mM K3Fe(CN)6, 0.5 mM K4Fe(CN)6, 0.15 mM Resazurin and 100 mM Phosphate Buffer) was added to the wells, incubated for 4 hours at 37° C. and 5% CO2 before RFU's (Relative Fluorescence Units) (ex. 540 nm., em. 590 nm.) were measured in a fluorescence plate reader.

[8] = counter-screen, wild-type, 10 ng/ml murine IL-3
[9] = HCC78 cells, 4 hours, Ros pY2274 normalized to total Ros1

Chain of Ba/F3 cells containing Ros1 with a mutation at the gatekeeper residue (L2026M) (P08922 whole entry L2026M, form open): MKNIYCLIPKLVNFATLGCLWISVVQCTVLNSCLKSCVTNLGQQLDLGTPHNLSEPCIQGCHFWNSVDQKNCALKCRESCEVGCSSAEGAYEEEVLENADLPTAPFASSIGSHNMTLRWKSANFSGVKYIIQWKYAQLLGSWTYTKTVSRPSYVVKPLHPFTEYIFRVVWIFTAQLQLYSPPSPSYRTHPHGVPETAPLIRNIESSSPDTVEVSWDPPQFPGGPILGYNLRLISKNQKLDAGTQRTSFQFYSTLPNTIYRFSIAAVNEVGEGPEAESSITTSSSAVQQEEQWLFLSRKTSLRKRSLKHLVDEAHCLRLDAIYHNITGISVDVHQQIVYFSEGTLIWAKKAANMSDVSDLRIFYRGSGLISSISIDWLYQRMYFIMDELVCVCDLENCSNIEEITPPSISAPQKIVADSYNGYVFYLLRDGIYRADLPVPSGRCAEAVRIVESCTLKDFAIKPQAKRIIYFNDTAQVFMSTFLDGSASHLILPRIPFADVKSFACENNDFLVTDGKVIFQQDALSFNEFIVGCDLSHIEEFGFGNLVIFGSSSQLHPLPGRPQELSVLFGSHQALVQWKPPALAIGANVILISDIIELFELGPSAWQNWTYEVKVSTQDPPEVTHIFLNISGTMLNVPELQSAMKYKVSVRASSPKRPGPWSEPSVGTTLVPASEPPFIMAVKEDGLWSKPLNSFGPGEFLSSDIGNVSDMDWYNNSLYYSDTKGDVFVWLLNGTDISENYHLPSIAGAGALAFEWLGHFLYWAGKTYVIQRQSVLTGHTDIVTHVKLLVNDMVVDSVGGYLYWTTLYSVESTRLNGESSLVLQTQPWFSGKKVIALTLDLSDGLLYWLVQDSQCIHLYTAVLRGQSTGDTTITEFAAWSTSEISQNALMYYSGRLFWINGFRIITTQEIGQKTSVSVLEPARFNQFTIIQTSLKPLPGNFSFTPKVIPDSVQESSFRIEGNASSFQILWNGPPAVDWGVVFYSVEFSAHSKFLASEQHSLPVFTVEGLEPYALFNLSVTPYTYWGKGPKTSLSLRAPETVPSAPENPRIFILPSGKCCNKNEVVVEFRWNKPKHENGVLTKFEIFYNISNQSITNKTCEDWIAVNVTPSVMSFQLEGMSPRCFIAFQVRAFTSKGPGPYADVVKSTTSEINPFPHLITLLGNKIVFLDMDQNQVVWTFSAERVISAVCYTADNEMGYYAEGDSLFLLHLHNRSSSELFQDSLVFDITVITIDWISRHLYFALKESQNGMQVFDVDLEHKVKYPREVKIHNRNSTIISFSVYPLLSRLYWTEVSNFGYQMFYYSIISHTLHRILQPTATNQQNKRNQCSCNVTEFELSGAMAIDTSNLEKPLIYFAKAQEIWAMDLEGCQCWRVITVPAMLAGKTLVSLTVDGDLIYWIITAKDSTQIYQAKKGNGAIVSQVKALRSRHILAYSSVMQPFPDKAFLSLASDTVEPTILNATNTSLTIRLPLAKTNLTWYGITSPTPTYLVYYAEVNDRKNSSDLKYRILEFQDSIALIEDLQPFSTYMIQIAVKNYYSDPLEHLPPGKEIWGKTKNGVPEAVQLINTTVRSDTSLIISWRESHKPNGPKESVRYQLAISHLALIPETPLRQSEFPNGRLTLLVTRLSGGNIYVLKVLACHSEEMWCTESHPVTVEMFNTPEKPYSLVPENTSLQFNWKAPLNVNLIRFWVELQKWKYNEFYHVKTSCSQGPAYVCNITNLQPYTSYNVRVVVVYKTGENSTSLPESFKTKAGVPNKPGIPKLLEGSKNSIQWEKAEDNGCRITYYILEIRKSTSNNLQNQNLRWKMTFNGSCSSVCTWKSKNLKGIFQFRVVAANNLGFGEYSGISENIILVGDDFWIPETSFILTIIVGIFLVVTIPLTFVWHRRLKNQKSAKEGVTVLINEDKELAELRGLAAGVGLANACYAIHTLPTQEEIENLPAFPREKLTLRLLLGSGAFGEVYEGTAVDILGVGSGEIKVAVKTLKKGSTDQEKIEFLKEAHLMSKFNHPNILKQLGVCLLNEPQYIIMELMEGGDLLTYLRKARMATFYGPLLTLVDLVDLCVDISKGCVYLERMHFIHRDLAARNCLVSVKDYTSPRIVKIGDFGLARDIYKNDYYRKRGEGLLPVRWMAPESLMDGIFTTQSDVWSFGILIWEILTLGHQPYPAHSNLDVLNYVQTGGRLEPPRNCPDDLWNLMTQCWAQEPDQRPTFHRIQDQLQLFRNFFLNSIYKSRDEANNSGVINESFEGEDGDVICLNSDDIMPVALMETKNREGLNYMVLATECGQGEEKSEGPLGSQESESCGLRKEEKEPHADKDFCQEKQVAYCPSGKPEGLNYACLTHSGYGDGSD
Chain of Ba/F3 cells containing Ros1 with G2032R mutation (P08922 whole entry G2032R, form open): as the sequence (P08922 whole entry L2026M, form open) above, with M2026L, G2032R counted along it
T1 sequence (P08922 28-2347): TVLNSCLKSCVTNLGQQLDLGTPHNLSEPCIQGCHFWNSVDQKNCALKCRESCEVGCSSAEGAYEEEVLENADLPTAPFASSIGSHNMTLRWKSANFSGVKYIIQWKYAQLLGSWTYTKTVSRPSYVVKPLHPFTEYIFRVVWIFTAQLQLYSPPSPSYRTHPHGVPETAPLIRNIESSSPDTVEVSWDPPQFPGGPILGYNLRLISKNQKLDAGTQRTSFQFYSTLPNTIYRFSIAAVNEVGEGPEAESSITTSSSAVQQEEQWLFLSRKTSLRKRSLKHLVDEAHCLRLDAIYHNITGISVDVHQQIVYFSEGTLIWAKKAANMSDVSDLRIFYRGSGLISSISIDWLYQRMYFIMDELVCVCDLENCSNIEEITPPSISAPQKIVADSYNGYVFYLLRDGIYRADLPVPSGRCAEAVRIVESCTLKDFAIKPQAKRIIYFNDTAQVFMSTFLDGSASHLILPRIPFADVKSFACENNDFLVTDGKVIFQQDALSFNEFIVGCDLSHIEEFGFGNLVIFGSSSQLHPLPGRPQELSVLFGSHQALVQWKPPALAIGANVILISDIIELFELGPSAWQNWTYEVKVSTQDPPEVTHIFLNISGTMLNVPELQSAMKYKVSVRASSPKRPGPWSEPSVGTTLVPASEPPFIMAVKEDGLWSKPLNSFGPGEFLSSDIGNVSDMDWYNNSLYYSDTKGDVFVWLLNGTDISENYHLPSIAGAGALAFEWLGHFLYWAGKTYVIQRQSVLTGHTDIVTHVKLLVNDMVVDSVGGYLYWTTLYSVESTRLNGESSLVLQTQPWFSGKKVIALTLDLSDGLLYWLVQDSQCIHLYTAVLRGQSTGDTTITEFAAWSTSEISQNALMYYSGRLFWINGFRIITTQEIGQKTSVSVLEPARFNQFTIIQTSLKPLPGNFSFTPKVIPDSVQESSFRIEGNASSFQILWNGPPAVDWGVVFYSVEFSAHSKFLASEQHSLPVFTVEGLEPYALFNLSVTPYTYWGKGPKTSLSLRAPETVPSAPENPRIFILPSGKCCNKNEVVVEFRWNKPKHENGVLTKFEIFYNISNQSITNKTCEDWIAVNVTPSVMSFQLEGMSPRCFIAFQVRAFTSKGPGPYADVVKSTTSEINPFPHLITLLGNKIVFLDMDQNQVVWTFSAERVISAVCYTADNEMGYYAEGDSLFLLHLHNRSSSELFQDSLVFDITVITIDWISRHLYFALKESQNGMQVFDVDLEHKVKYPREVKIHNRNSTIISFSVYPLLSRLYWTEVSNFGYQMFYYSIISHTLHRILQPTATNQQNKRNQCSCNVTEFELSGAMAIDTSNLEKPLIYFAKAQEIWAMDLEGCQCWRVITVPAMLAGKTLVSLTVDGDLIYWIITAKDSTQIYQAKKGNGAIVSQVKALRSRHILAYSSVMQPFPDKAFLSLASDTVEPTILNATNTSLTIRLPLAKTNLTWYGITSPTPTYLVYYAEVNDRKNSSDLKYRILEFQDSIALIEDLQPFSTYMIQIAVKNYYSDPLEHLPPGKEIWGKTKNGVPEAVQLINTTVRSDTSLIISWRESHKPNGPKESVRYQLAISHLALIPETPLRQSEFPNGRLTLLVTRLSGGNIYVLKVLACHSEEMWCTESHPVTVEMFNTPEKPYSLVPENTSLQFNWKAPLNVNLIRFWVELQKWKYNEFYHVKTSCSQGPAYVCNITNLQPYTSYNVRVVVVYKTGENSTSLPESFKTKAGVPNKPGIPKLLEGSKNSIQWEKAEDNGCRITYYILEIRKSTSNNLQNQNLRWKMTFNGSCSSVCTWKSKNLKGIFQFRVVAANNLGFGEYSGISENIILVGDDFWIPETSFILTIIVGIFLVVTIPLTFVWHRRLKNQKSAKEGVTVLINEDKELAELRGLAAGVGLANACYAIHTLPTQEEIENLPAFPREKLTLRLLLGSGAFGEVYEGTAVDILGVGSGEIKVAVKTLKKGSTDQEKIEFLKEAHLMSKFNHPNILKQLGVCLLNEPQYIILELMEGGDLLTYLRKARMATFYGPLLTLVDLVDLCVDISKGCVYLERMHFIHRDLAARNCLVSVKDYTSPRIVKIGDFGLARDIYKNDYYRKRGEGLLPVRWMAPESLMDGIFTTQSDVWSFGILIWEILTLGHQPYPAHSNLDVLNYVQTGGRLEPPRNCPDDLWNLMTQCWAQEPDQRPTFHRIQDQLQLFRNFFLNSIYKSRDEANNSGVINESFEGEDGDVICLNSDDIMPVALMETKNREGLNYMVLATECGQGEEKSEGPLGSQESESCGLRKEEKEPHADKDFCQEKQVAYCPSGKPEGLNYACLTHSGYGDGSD
T2 sequence (P08922 whole entry, stated change not applied): as the sequence (P08922 whole entry L2026M, form open) above, with M2026L counted along it

HCC-78 PROL pEC50 ([1]; HCC78 cells, 4 days, MTT)	ROS1 pIC50 [3]	EC50 ([1]; HCC78 cells, 4 days, MTT)	Compound	EC50 [1]	IC50 ([2]; HCC78, 4 h)	IC50 [3]	Ba/F3 Ros1 L2026M (-IL-3) pIC50 [4]	CC50 [5]	melting point	BaF3-ROS1-IL3 pIC50 [6]	Ba/3 Ros1 G2032R (-IL-3) pIC50 [7]	CC50 [5, 8]	IC50 [2, 9]
–	–	–	CC(C)c1ccc(COc2ccc(-c3c(-c4ccncc4)nn4c3C(=O)NCC4)nc2)cc1 [Compound 12]	0.794 µM	0.501 µM	0.316 µM	6.7	> 10 µM	84 °C	6.5	–	–	–
–	–	–	CC(C)c1ccc(COc2ccc(-c3c(-c4ccncc4)nn4c3C(=O)NCC4)cc2F)cc1 [Compound 18]	0.0398 µM	–	0.01 µM	7.7	> 10 µM	241 °C	7.7	7.3	–	–
–	–	–	CC(C)c1ccc(COc2ccc(-c3c(-c4ccncc4)nn4c3C(=O)N(CCO)CC4)cc2F)cc1 [Compound 19]	< 0.0316 µM	–	0.0126 µM	8.0	> 10 µM	172 °C	8.2	7.5	–	–
–	–	–	CC(C)c1ccc(COc2ccc(-c3c(-c4ccncc4)nn4c3C(=O)N(CCO)CC4)c(F)c2)cc1 [Compound 21]	0.0398 µM	–	0.01 µM	7.6	> 10 µM	141 °C	7.8	7.4	–	–
–	–	–	CC(C)c1ccc(COc2ccc(-c3c(-c4ccncc4)nn4c3C(=O)NCC4)cc2C#N)cc1 [Compound 26]	0.794 µM	0.631 µM	0.398 µM	6.5	> 10 µM	235 °C	6.6	–	–	–
–	–	–	CC(C)c1ccc(COc2ccc(-c3c(-c4ccncc4)nn4c3C(=O)N(CCO)CC4)c(C#N)c2)cc1 [Compound 28]	0.0631 µM	–	0.0158 µM	7.7	> 10 µM	185 °C	7.8	7.3	–	–
–	–	–	COc1cc(-c2c(-c3ccncc3)nn3c2C(=O)N(C)CC3)ccc1OCc1ccc(C(C)C)cc1 [Compound 33]	< 0.0316 µM	0.0126 µM	0.01 µM	7.4	> 10 µM	151 °C	7.7	–	–	–
6.6	–	–	CC(C)c1ccc(COc2ccc(-c3c(-c4ccncc4)nn4c3C(=O)N(CC(O)CO)CC4)cc2)cc1 (centres unmarked) [Compound 44]	–	–	0.0501 µM	6.9	–	192 °C	7.4	6.8	–	–
7.0	7.3	–	CC(O)CN1CCn2nc(-c3ccncc3)c(-c3ccc(OCc4ccc(C(C)C)cc4)cc3)c2C1=O (centres unmarked) [Compound 46]	–	–	–	7.1	–	177 °C	7.5	6.9	–	–
–	–	0.0794 µM	CC(O)CN1CCn2nc(-c3ccncc3)c(-c3ccc(OCc4ccc(C(C)C)cc4)cc3)c2C1=O (centres unmarked) [Compound 47]	–	–	0.0501 µM	7.5	–	–	7.3	6.9	> 10 µM	–
–	–	–	CC(C)c1ccc(COc2ccc(-c3c(-c4ccncc4)nn4c3C(=O)N(CC(C)(C)O)CC4)cc2)cc1 [Compound 51]	0.1 µM	–	0.0794 µM	7.3	> 10 µM	211 °C	7.2	6.6	–	–
–	–	–	O=C1NCCn2nc(-c3ccncc3)c(-c3ccc(OCc4ccc(C(F)(F)F)cc4)cc3)c21 [Compound 119]	0.398 µM	0.316 µM	0.2 µM	6.9	> 10 µM	280 °C	7.2	–	–	–
–	–	–	O=C1NCCn2nc(-c3ccncc3)c(-c3ccc(OCC#Cc4ccccc4)cc3)c21 [Compound 142]	0.398 µM	0.126 µM	0.126 µM	6.4	> 10 µM	245 °C	6.9	–	–	–
–	–	–	COc1cc(-c2c(-c3ccnc(N)c3)nn3c2C(=O)NCC3)ccc1OCc1ccc(C(C)C)cc1 [Compound 149]	< 0.0316 µM	0.0126 µM	0.00794 µM	7.4	> 10 µM	179 °C	7.6	–	–	–
–	–	0.1 µM	CC(C)c1ccc(COc2ccc(-c3c(-c4ccncn4)nn4c3C(=O)N(C(C)C)CC4)cc2)cc1 [Compound 160]	–	–	0.0398 µM	7.3	–	166 °C	7.3	–	> 10 µM	0.0316 µM
–	–	1.26 µM	CC(C)c1ccc(COc2ccc(-c3c(-c4ccncn4)nn4c3C(=O)N(CCN)CC4)cc2)cc1 [Compound 165]	–	–	0.2 µM	6.5	–	154 °C	6.7	–	> 10 µM	0.631 µM
–	–	–	CC(C)c1ccc(C2CCc3cc(-c4c(-c5ccncc5)nn5c4C(=O)N(CCO)CC5)ccc3O2)cc1 (centres unmarked) [Compound 200]	0.316 µM	–	0.126 µM	6.3	> 10 µM	–	7.3	6.6	–	–
–	–	0.1 µM	CC(C)c1ccc(COc2ccc(-c3c(-c4ccncn4)nn4c3C(=O)N(C)CC4)cc2)cc1 [Compound 214]	–	–	0.0316 µM	7.3	–	160 °C	7.4	–	> 10 µM	0.0316 µM
